Measurements: ChEMBL document CHEMBL2074333, “BPR0L075, a novel synthetic indole compound with antimitotic activity in human cancer cells, exerts effective antitumoral activity in vivo” (Cancer Res, 2004)

Assays:
[1] = biological target: T1, ATP-dependent translocase ABCB1 (Homo sapiens, UniProt P08183); test: TP_TRANSPORTER: drug resistance in KB-VIN10 cells; type: functional, cell-based
[2] = biological target: T1, ATP-dependent translocase ABCB1; test: TP_TRANSPORTER: drug resistance in KB-TAX50 cells; type: functional, cell-based

T1 sequence (P08183 whole entry): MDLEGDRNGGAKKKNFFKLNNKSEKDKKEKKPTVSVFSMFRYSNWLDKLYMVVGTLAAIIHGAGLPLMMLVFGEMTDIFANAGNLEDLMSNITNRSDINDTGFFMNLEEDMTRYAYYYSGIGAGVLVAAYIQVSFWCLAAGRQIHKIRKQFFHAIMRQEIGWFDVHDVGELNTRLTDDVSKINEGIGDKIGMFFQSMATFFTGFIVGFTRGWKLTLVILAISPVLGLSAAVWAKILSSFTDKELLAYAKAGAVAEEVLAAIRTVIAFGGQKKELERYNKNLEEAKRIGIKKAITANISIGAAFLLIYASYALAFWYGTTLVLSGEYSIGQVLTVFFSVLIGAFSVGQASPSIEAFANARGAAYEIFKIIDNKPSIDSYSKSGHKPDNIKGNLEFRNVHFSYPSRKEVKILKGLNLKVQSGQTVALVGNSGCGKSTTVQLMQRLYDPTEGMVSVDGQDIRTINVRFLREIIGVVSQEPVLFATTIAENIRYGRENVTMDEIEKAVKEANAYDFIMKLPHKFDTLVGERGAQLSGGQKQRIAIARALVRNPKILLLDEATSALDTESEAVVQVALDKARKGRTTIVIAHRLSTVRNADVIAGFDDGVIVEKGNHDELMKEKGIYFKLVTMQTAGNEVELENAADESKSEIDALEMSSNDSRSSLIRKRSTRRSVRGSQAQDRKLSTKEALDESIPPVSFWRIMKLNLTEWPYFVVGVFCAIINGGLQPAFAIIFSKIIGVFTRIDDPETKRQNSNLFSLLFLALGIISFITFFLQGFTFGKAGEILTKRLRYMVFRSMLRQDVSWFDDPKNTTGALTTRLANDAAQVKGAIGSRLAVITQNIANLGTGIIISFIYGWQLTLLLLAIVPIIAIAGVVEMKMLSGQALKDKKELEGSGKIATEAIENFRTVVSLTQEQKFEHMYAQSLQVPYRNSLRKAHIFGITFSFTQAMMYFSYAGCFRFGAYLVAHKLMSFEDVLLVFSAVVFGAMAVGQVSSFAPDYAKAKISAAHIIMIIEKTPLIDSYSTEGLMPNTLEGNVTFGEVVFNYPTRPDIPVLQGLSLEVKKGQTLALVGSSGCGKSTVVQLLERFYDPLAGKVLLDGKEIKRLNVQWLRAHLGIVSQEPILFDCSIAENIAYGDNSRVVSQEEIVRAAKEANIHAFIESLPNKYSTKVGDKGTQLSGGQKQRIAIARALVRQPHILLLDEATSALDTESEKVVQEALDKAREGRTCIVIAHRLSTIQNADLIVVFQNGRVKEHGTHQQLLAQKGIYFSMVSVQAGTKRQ

Activity [1]	Activity [2]	SMILES
is not a substrate [-]	is not a substrate [-]	COc1ccc2c(C(=O)c3cc(OC)c(OC)c(OC)c3)c[nH]c2c1
substrate [+]	substrate [+]	CC(=O)O[C@H]1C(=O)[C@@]2(C)[C@H]([C@H](OC(=O)c3ccccc3)[C@]3(O)C[C@H](OC(=O)[C@H](O)[C@@H](NC(=O)c4ccccc4)c4ccccc4)C(C)=C1C3(C)C)[C@]1(OC(C)=O)CO[C@@H]1C[C@@H]2O [PACLITAXEL]
substrate [+]	substrate [+]	CC[C@]1(O)C[C@H]2CN(CCc3c([nH]c4ccccc34)[C@@](C(=O)OC)(c3cc4c(cc3OC)N(C=O)[C@H]3[C@@](O)(C(=O)OC)[C@H](OC(C)=O)[C@]5(CC)C=CCN6CC[C@]43[C@@H]65)C2)C1 [VINCRISTINE]

SMILES	Activity [1]	Activity [2]
COc1cc2c(c(OC)c1OC)-c1ccc(OC)c(=O)cc1[C@@H](NC(C)=O)CC2 [COLCHICINE]	substrate [+]	substrate [+]
